Test results: paper PMC10382584, “Macrocyclization of linear molecules by deep learning to facilitate macrocyclic drug candidates discovery” (Nature Communications, 2023)

What was measured:
Assay in all cases: biochemical
Design in all cases: DiscoveRx KINOMEscan competition binding, percent of DMSO control signal at 100 nM
Conditions in all cases: read-out: Fig. 4a / Percent Control / Compound 1; percent of DMSO control, competition binding
[1] = target: T1, JAK1(JH2domain-pseudokinase) (Homo sapiens, UniProt P23458)
T1 construct: JH2domain-pseudokinase

TEC = TEC (Homo sapiens, UniProt P42680)
BRSK1 = BRSK1 (Homo sapiens, UniProt Q8TDC3)
MEK2 = target: T2, MEK2 (Homo sapiens, UniProt P36507)
T2 construct: gene MAP2K2
T2 sequence (P36507 whole entry): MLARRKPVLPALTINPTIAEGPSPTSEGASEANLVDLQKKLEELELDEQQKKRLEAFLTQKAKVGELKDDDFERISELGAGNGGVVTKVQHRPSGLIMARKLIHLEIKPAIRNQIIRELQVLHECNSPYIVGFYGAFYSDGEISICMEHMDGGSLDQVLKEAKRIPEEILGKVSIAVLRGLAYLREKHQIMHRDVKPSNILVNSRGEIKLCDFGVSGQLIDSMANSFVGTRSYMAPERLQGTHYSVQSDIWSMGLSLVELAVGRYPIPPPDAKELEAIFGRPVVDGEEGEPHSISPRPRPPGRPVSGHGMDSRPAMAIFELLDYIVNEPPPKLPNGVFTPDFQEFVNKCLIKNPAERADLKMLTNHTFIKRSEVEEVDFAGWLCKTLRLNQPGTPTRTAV

KIT = KIT (Homo sapiens, UniProt P10721)
GRK3 = GRK3 (Homo sapiens, UniProt P35626)
HUNK = HUNK (Homo sapiens, UniProt P57058)
HUNK, sequence (P57058 whole entry): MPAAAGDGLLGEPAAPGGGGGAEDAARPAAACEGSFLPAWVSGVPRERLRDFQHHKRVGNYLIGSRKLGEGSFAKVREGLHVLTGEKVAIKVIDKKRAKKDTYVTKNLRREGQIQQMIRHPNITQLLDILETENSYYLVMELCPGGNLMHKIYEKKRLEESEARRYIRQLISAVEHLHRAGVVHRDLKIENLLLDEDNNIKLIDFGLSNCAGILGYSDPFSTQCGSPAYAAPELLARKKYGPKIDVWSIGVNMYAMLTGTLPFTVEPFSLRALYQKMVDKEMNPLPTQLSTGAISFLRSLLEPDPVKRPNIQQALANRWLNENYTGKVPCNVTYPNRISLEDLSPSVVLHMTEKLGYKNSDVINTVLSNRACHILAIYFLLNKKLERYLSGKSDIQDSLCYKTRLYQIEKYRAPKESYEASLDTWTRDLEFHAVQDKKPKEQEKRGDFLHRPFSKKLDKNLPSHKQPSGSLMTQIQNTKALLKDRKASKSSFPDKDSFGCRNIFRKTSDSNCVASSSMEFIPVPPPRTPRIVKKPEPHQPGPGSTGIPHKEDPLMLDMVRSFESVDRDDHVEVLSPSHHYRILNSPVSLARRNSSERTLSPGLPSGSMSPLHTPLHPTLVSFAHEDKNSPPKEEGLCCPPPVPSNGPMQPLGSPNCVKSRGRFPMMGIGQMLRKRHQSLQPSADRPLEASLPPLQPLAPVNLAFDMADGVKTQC

FER = FER (Homo sapiens, UniProt P16591)
FER, sequence (P16591 whole entry): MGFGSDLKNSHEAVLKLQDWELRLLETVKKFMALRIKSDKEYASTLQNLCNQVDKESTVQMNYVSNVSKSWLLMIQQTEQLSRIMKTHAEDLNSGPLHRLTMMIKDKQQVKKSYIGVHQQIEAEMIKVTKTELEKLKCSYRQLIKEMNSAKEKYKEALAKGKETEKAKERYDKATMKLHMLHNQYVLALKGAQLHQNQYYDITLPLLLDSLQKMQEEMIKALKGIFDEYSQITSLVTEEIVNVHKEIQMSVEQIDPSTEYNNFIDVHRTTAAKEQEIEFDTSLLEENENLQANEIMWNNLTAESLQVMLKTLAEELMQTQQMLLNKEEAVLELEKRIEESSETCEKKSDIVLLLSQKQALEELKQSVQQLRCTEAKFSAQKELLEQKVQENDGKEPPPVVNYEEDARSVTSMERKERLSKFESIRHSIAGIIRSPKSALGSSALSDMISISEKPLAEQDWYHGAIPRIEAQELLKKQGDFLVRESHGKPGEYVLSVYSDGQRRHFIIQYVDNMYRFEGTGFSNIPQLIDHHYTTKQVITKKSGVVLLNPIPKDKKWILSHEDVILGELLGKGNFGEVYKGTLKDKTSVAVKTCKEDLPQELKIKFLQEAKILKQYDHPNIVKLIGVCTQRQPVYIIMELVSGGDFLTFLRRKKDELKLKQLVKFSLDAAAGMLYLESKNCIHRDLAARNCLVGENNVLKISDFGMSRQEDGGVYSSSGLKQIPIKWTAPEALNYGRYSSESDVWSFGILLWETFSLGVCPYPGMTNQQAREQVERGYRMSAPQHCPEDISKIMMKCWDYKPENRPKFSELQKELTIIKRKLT

MARK4 = MARK4 (Homo sapiens, UniProt Q96L34)
MARK4, sequence (Q96L34 whole entry): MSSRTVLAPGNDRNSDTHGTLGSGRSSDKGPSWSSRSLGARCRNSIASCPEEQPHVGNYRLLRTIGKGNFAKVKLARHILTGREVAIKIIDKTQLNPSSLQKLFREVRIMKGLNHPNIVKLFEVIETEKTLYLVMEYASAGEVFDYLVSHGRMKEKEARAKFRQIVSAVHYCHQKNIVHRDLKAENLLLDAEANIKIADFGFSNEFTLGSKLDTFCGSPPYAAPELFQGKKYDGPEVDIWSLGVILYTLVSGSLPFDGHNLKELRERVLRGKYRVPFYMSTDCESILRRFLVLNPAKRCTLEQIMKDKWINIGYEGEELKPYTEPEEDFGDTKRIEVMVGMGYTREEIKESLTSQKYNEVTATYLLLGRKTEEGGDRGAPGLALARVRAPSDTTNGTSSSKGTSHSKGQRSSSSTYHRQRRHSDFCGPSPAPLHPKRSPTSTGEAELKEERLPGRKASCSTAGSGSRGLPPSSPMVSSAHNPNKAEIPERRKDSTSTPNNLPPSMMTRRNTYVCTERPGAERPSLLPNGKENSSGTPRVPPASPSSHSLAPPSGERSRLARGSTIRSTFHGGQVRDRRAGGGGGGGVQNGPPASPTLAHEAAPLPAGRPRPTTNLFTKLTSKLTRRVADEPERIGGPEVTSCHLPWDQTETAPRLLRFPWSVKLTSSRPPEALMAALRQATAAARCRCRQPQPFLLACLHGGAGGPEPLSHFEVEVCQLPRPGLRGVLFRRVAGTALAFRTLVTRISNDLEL

AKT2 = AKT2 (Homo sapiens, UniProt P31751)
AKT2, sequence (P31751 whole entry): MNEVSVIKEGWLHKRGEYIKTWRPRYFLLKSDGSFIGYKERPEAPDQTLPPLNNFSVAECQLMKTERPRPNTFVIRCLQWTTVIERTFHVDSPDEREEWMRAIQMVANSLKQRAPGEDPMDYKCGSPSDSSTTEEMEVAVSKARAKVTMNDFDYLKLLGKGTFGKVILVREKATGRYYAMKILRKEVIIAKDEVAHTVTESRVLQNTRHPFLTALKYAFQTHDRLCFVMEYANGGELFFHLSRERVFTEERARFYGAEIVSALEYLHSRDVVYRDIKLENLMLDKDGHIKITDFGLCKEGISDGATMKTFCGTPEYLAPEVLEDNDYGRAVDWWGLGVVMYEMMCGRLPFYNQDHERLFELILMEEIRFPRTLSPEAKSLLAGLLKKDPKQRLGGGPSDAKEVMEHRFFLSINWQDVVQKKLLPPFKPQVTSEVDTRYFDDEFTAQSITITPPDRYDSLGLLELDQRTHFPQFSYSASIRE

WNK4 = WNK4 (Homo sapiens, UniProt Q96J92)
[2] = target: T3, ABL1(H396P)-nonphosphorylated (Homo sapiens, UniProt P00519, H396P)
T3 construct: nonphosphorylated

[3] = target: T4, RSK4(Kin.Dom.2-C-terminal) (Homo sapiens, UniProt Q9UK32)
T4 construct: gene RPS6KA6; Kin.Dom.2-C-terminal
T4 sequence (Q9UK32 whole entry): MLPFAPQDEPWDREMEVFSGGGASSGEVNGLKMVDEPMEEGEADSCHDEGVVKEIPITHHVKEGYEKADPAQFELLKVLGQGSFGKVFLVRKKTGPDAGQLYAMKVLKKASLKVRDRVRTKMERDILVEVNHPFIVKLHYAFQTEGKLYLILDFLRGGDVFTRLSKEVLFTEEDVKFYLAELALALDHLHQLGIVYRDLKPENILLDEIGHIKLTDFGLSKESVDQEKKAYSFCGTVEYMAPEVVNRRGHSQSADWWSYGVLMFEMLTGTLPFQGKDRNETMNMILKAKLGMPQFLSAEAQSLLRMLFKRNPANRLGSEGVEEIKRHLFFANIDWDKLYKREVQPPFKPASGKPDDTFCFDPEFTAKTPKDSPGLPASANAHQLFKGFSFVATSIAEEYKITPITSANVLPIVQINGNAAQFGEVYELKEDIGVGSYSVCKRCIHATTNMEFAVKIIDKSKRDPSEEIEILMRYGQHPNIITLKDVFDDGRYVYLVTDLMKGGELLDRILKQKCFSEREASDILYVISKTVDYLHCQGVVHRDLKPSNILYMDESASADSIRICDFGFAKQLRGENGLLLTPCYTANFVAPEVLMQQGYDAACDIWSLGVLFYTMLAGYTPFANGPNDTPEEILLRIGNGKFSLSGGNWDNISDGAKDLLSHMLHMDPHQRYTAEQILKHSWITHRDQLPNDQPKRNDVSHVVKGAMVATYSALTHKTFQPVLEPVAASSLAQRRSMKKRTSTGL

PHKG1 = PHKG1 (Homo sapiens, UniProt Q16816)
PHKG1, sequence (Q16816 whole entry): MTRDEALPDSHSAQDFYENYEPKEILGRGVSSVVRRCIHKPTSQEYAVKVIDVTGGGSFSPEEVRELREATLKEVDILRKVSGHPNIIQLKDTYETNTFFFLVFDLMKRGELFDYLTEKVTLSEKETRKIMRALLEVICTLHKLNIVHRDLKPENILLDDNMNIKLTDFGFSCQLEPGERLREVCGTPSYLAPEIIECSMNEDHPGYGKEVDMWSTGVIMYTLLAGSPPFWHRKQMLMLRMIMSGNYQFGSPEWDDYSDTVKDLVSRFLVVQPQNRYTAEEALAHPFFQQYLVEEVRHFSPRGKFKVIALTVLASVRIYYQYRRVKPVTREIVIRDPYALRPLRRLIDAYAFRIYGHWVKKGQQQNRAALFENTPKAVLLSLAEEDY

TRPM6 = TRPM6 (Homo sapiens, UniProt Q9BX84)
MAP3K4 = MAP3K4 (Homo sapiens, UniProt Q9Y6R4)
CAMK1B = target: T5, CAMK1B (Homo sapiens, UniProt Q6P2M8)
T5 construct: gene PNCK

PFTAIRE2 = target: T6, PFTAIRE2 (Homo sapiens, UniProt Q96Q40)
T6 construct: gene CDK15
T6 sequence (Q96Q40 whole entry): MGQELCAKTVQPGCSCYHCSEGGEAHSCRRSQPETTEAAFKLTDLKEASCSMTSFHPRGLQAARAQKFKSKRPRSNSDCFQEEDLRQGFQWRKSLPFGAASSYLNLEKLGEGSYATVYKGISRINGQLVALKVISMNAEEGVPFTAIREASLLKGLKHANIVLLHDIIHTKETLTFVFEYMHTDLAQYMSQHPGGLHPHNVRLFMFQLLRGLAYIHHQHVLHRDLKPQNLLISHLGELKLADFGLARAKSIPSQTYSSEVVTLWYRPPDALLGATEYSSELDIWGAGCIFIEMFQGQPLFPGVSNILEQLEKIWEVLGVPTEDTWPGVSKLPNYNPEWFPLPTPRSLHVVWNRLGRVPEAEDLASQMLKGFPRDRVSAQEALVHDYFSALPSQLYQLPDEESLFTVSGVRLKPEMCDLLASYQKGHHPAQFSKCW

PAK4 = PAK4 (Homo sapiens, UniProt O96013)
TGFBR1 = TGFBR1 (Homo sapiens, UniProt P36897)
[4] = target: T7, ABL1(E255K)-phosphorylated (Homo sapiens, UniProt P00519, E255K)
T7 construct: phosphorylated

[5] = target: T8, TYK2(JH1domain-catalytic) (Homo sapiens, UniProt P29597)
T8 construct: JH1domain-catalytic

BMPR1B = BMPR1B (Homo sapiens, UniProt O00238)
FGFR2 = FGFR2 (Homo sapiens, UniProt P21802)
IGF1R = IGF1R (Homo sapiens, UniProt P08069)
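Further: KINOMEscan kinase panel binding assay, signal normalized between DMSO as 100% and a positive control compound as 0%.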

Compound: Cc1cnc2nc1Nc1cccc(c1)COCc1cc(ccc1OCCN1CCCC1)N2 [Compound 1]
- remaining binding at 0.1 µM [1]: 36%
- remaining binding at 0.1 µM (TEC): 94%
- remaining binding at 0.1 µM (BRSK1): 93%
- remaining binding at 0.1 µM (MEK2): 72%
- remaining binding at 0.1 µM (KIT): 57%
- remaining binding at 0.1 µM (GRK3): 72%
- remaining binding at 0.1 µM (HUNK): 100%
- remaining binding at 0.1 µM (FER): 87%
- remaining binding at 0.1 µM (MARK4): 77%
- remaining binding at 0.1 µM (AKT2): 89%
- remaining binding at 0.1 µM (WNK4): 48%
- remaining binding at 0.1 µM [2]: 37%
- remaining binding at 0.1 µM [3]: 96%
- remaining binding at 0.1 µM (PHKG1): 87%
- remaining binding at 0.1 µM (TRPM6): 85%
- remaining binding at 0.1 µM (MAP3K4): 100%
- remaining binding at 0.1 µM (CAMK1B): 92%
- remaining binding at 0.1 µM (PFTAIRE2): 85%
- remaining binding at 0.1 µM (PAK4): 100%
- remaining binding at 0.1 µM (TGFBR1): 94%
- remaining binding at 0.1 µM [4]: 79%
- remaining binding at 0.1 µM [5]: 27%
- remaining binding at 0.1 µM (BMPR1B): 63%
- remaining binding at 0.1 µM (FGFR2): 79%
- remaining binding at 0.1 µM (IGF1R): 91%
